Data on 3 molecules can be found in publication PMC5913603, “Structure–activity relationships of strigolactones via a novel, quantitative in planta bioassay” (Journal of Experimental Botany, 2018).

Assay [1] concerns Phelipanche aegyptiaca seeds. As to the kind of experiment: Germination-inducing activity on parasitic seeds. It counts as in vivo. Particulars: for Fold lower potency than rac-GR24 (germination): compared with rac-GR24. The procedure:
Seeds of Phelipanche aegyptiaca were collected from field-grown tomato in the West Galilee region of Israel. The seeds were stored in glass vials in the dark at room temperature until their use in germination tests. For the preparation of test solutions, the compound to be tested was weighed out very accurately, dissolved in acetone at 10^–2 M and then diluted with sterile distilled water to the desired concentrations. All solutions were prepared just before use. Seeds were surface-sterilized and preconditioned as described by [Bhattacharya et al. (2009)]. Briefly, after exposure for 5 min to 50% (v/v) aqueous solutions of commercial bleach (2% hypochlorite), seeds were rinsed with sterile distilled water. For preconditioning, seeds were placed on glass fibre filter discs using a sterile toothpick (approximately 50 seeds per disc); the glass fibre discs were placed on two filter paper discs, wetted with sterile distilled water, and incubated at 25 °C in the dark for 6 d. The preconditioned seeds were then allowed to dry completely in a laminar flow cabinet, after which they were treated with each compound at five different concentrations: 10^–5 M, 10^–6 M, 10^–7 M, 10^–8 M, and 10^–9 M. Their germination rate was evaluated under a stereomicroscope 7 d after the beginning of the treatment. For each concentration, at least 250 seeds were scored; synthetic SL rac-GR24 was included as a positive control across the same range of concentrations, while a solution of 0.001% acetone in sterile distilled water was included as a negative control. Seeds were scored as germinated if the radicle protruded through the seed coat 1 week after treatment. Germination values were normalized to those of rac-GR24 at 10^–7 M.
Fig. 3. Germination-inducing activity on Phelipanche aegyptiaca seeds of rac-1–9 and of strigol, ST23b, EGO10, and EDOT at different concentrations, compared to rac-GR24 0.1 μM as a positive control and to acetone as a negative control. […] The x-axis indicates the range of concentrations. Data are means (±SD) of n>250 seeds. Confidence intervals at 95% are used to express errors of the means. The data for rac-1–9 are indicated by ‘D-lactams’.

The target in assay [2] is T1, AtD14 fused to firefly luciferase (D14::LUC) (Arabidopsis thaliana, UniProt Q9SQR3).
T1 construct: a pDONOR207 carrying the D14 promoter fused to the D14 CDS; expressed in transfected cells
T1 sequence (Q9SQR3 1-267): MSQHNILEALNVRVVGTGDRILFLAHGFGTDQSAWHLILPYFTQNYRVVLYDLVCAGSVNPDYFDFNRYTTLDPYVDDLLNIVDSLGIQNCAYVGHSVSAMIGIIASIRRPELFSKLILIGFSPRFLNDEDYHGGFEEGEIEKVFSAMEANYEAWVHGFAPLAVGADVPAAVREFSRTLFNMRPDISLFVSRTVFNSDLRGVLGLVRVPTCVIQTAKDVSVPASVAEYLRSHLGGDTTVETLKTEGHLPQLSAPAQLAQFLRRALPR
As to the kind of experiment: Luminometer (luciferase) assay: D14::LUC degradation in transgenic Arabidopsis seedlings. It counts as in vivo. Particulars: for D14 degradation in the luciferase assay: 0.01–100 μM range, racemic mixtures. As to the method: A binary D14p::D14::LUC vector was obtained by LR-recombination (Invitrogen) of a pDONOR207 carrying the D14 promoter fused to the D14 CDS ([Chevalier et al., 2014]) in pGWB435 ([Nakagawa et al., 2007]). Transgenic D14::D14::LUC Arabidopsis plants were generated by agroinfiltration of Col-0 plants using the floral dip method ([Clough and Bent, 1998]). Seeds were surface-sterilized with an 8% aqueous solution of commercial bleach in distilled water for 5 min and rinsed five times with sterile distilled water. Sterile seeds were plated on MS medium (pH 5.8) ([Murashige and Skoog, 1962]) without sucrose solidified with 1.2% Agar, and kept at 4 °C for 3 d (stratification). Seeds were then incubated for 7 d in a growth chamber at 25 °C and a photoperiod of 16 h light/8 h dark. SL analogues and mimics (Figs 1, 2) were accurately weighed and dissolved in acetone at 10^–2 M. Five different concentrations (10^–4 M, 10^–5 M, 10^–6 M, 10^–7 M, 10^–8 M) were prepared by 1:10 serial dilutions in liquid MS medium, together with blank controls containing corresponding water and acetone volumes in the medium. D-Luciferin (potassium salt) stock was prepared at 25 mg ml^–1 in DMSO, aliquoted and stored at –80 °C until use; all other solutions were prepared just before the assay. Using tweezers, 7-d-old Arabidopsis seedlings were placed in a 96-well microtiter plate with their cotyledons facing up (one seedling per well, in 170 µl of liquid MS medium), and 15 µl of luciferin (0.125 mg ml^–1, diluted 1:200 in MS from stock) was added to each well, corresponding to 1.875 µg. The plate was covered with a transparent film with a hole poked above each well to allow for gas exchange. Measurements were taken every 15 min in a multimode reader (LB942 Tristar2 S, Berthold Technologies) for the following 24 h; the signal was allowed to stabilize for 2–3 h in the light before treatments were started by adding 15 µl per well of the different SLs in MS medium, thus reaching a final volume in each well of 200 µl and 9.4 µg ml^– of luciferin. Appropriate blank controls were added as well. Each treatment was applied to a minimum of 16 wells (seedlings), each of which was measured individually over time. The percentage efficacy of each compound molecule was calculated 6 h after treatment as a function of the decrease in D14::LUC-emitted luminescence with respect to (+)-GR24 1 µM (i.e. GR24^5DS), assuming that the latter, minus the drift of the corresponding blank control, had 100% efficacy. For calibration purposes, SL analogues that had already been characterized, namely (±)-ST23b, (±)-EGO10, and (±)-EDOT ([Prandi et al., 2011]), were tested across the same concentration range, along with (±)-strigol (Chiralix, NL). The half maximal-effective concentration (EC50) for (+)-GR24 was calculated by linear regression fitting of the data (n=5, with at least three individual seedlings and values being pooled for each replicate) at the different concentrations, minus the values for acetone-treated samples (negative controls) and normalized in relation to (+)-GR24 0.01 μM, which was set to 0%. Confidence intervals at 95% were used to express errors of the means.
D14 is a target for proteasome-dependent destruction upon interaction with its ligand(s), which explains why fluorescence of D14::GFP fusion proteins is quenched upon SL treatment in transgenic Arabidopsis ([Chevalier et al., 2014]). We exploited this molecular network to implement a quantitative activity assay that inversely correlated luminescence to perception of SL-related molecules in transgenic Arabidopsis expressing D14::LUC under the control of the D14 endogenous promoter. […] We then used the assay to test various SLs in the same range, namely strigol as an example of natural SLs; ST23b, EGO10, and EDOT (Fig. 1, all used as rac mixtures) as examples of active SL analogues; and the new set of SL-D-lactams rac-1–9 (Fig. 2).
Fig. 4. Luciferase assay. […]

`CC1=CC(C2Cc3c(n(C)c4ccccc34)C2=O)NC1=O` (racemic) [rac-9]: the “Germination activity at 10 μM” value in assay [1] (10 μM) is “inactive”. Further, in assay [2] (10 μM), the “Activity in the luciferase assay at 10 μM” value is “inactive”. Further, the “Activity in the luciferase assay at 100 μM” value in assay [2] (100 μM) was “partial agonist”. In assay [2], the “D14 degradation in the luciferase assay” value was “substantially inactive”.

Turning to `CC1=C[C@H](O/C=C2/C(=O)O[C@H]3c4ccccc4C[C@@H]23)NC1=O` (racemic) [rac-4], the “Germination efficiency at 1 μM” value in assay [1] (1 μM) is listed as “efficiency comparable to GR24”. In addition, in assay [1], the “Fold lower potency than rac-GR24 (germination)” value is listed as ~ 10 fold. Moreover, the “Concentration at which some germination activity could still be detected” value in assay [1] (tested 10^-9 to 10^-5 M) was 1 µM. Besides, in assay [2], the “D14 degradation in the luciferase assay” value is “weak activity”.

`CC1=C[C@H](O/C=C2/C(=O)O[C@@H]3c4ccccc4C[C@H]23)NC1=O` (racemic) [rac-3]: the “Fold lower potency than rac-GR24 (germination)” value in assay [1] was ~ 100 fold. In assay [1] (high activity only at this concentration, germination normalized to rac-GR24 0.1 μM), the “Concentration at which high germination activity was shown” value was determined as 10 µM. The “D14 degradation in the luciferase assay” value in assay [2] was “almost inactive”.
